Source: patent US6410572B1 (priority 2000, dated 2002)

Key:
Botrytis cinerea = test: Activity against Botrytis cinerea on bell peppers (fruit disks, protective spray); type: in vivo; settings: green bell pepper disks, 4 days at 18° C.
Procedure: The active ingredients, separately or together, are formulated as a 10% emulsion in a mixture of 63% by weight of cyclohexanone and 27% by weight of emulsifier, and diluted with water to the desired concentration.
Evaluation is carried out by determining the infected leaf areas in percent. These percentages are converted into efficacies. The efficacy (W) is calculated as follows using Abbot's formula: […]
α corresponds to the fungal infection of the treated plants in % and
β corresponds to the fungal infection of the untreated (control) plants in %
An efficacy of 0 means that the infection level of the treated plants corresponds to that of the untreated control plants; an efficacy of 100 means that the treated plants were not infected.
The expected efficacies of the mixtures of the active ingredients were determined using Colby's formula [R. S. Colby, Weeds 15, 20-22 (1967)] and compared with the observed efficacies.
Colby's formula: E=x+y−x·y/100
Disks of green bell peppers were sprayed to runoff point with an aqueous preparation of active ingredient which had been prepared from a stock solution comprising 10% of active ingredient, 63% of cyclohexanone and 27% of emulsifier. 2 hours after the spray coating had dried on, the fruit disks were inoculated with a spore suspension of Botrytis cinerea containing 1.7×10^6 spores per ml of a 2% strength Biomalz solution. The inoculated fruit disks were subsequently incubated in humid chambers at 18° C. for 4 days. The Botrytis infection on the diseased fruit disks was then evaluated visually.

Phytophthora infestans = type: in vivo; settings: 0.8 ppm active ingredient in the spray liquor; tomato leaves; after 6 days at 16-18° C.
[1] = 12.5 ppm active ingredient in the spray liquor
[2] = 50 ppm active ingredient in the spray liquor

| SMILES | Efficacy in % of the untreated control (Botrytis cinerea; [1]) [%] | Efficacy in % of the untreated control (Phytophthora infestans) [%] | Efficacy in % of the untreated control (Botrytis cinerea; [2]) [%] |
| --- | --- | --- | --- |
| O=C(Nc1ccccc1-c1ccc(F)cc1)c1cccnc1Cl [Compound I.1] | 20 | 0 | – |
| O=C(Nc1ccccc1-c1ccc(Cl)cc1)c1cccnc1Cl [Compound I.2] | – | 0 | 85 |
| N#Cc1c(Cl)c(Cl)c(Cl)c(C#N)c1Cl [Compound II, Tetrachloroisophthalonitrile, reference compound] | 0 | 0 | 0 |
